{
  "source": "paper PMC6158189",
  "about": "“A pharmacological probe identifies cystathionine β-synthase as a new negative regulator for ferroptosis” (Cell Death & Disease, 2018)",
  "key": {"[1]": {"tested_on": "HEK293T cells", "test": "cell death, FITC Annexin V kit, flow cytometry", "format": "cell-based", "details": "40 μM, 12 h", "description": "Fig. 4 CH004 arrests the cell cycle at the S phase. a CH004 reduces the cell viability of HEK293T and HepG2 cells. HEK293T or HepG2 cells were treated with indicated concentrations of CH004 for 24 h before the cell number was analyzed using the CellTiter96® Aqueous One Solution Cell Proliferation Assay (Promega, Materials and Methods). The means at each concentration of one representative experiment are shown as percentages of DMSO (control, 100%). Means ± SDs (n = 3). b Overexpression of hCBS or knock-down of hCBS counteracts the growth inhibition exerted by CH004 in HEK293T cells. Indicated HEK293T stable cell lines were treated with the CH004 or DMSO for 24 h. Then, the cell viability was quantified with the CellTiter 96® Aqueous One Solution Cell Proliferation Assay under the standard protocol (Promega). […] The efficacy for CBS overexpression and knock-down in HEK293T cells was determined by Western blotting using an anti-CBS antibody (3E1, 1:2000; Abnova). c CH004 induces cell death in HEK293T and HepG2 cells. […] HEK293T cells were incubated with indicated compounds for 12 h, and the DNA content was quantified with propidium iodide to analyze the cell cycle distribution by flow cytometry (e). The cell cycle distributions for HEK293T-shNT and HEK293T-shCBS cells were accordingly analyzed and are shown in f. […]"}, "[2]": {"target": "T1, hCBS-FL (Homo sapiens, UniProt P35520)", "T1 sequence (P35520 1-551)": "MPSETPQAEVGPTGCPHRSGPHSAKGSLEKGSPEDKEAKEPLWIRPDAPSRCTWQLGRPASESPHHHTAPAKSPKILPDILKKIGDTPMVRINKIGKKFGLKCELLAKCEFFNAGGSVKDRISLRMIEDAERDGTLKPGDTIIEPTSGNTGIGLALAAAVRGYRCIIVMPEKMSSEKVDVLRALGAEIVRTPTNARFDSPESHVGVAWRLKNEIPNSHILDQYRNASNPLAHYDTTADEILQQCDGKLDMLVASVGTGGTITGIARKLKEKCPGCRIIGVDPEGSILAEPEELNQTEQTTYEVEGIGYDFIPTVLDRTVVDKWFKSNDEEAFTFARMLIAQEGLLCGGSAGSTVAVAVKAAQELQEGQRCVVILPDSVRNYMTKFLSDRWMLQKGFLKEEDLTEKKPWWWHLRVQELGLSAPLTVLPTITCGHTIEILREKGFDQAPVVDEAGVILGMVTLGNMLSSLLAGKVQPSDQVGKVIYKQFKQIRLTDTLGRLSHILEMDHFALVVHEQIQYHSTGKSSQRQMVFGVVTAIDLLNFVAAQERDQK", "test": "CBS enzyme assay, H2S quantified by methylene blue method", "format": "biochemical", "set-up": "human CBS or hCSE full-length (CBS-FL or CSE) was subcloned into pGEX-KG, pcDNA3 or pCDH vector; GST (N); made in house; host or cells: E. coli BL21", "details": "150 nM hCBS-FL, 200 μM SAM, 4 mM L-Cys, 4 mM D,L-Hcys, Tris-HCl pH 8.6, 80 min", "description": "Fig. 1 CH004 inhibits the activity of hCBS in the in vitro purified enzyme assays under different assay conditions. a A scheme for the cascade enzymatic reactions catalyzed by CBS or CSE. Cth, cystathionine. b, c Inhibitory effects of CH004 on the activity of hCBS-413 (b) or hCSE (c). The enzyme activities were monitored for various concentrations of CH004 under the standard conditions (50 mM Tris-HCl, pH 8.6; “Materials and Methods” section). The result is shown as percentages of the control (DMSO, 100%). The data are shown as means ± SDS (n = 3). d The dose-dependent inhibition of CH004 on the hCBS-413 activity was measured by the tandem-well-based assay under the standard conditions except using 50 mM Hepes buffer (pH 7.4) instead of 50 mM Tris-HCl (pH 8.6). Means ± SDs (n = 3). e The dose-dependent inhibition of CH004 on the CBS activity measured by methylene blue method. […] After 80 min, the assay was stopped by added 10 μL 10% ZnAC and the generated H2S was quantified by N,N-dimethyl-p-phenylenediamine to give an absorbance at 670 nm (for details, see Materials and Methods section; ref. [53]). […]\n^3The IC50 were determined for hCBS-FL by Methyl Blue method (ref. 1)."}},
  "note": "Where “and” joins values, the source holds several entries; their conditions need not be identical. Identical values can stand only once.",
  "data": [
    {"smiles": "Cn1nc(Cc2ccccc2)nc2c(=O)n(C)c(=O)nc1-2", "note": "[CH004, 3-benzyl-1,6-dimethylpyrimido[5,4-e][1,2,4]triazine-5,7(1H,6H)-dione]", "values": [
      {"measurement": "increase in cell death", "setting": "[1]", "result": "~ 30%"},
      {"measurement": "IC50", "setting": "[2]", "result": "1710 nM and 1700 nM"}
    ]}
  ]
}
